Assay results taken from patent US5447926A, “Quinolone carboxylic acid derivatives” (SS Pharmaceutical Co., Ltd., priority 1990, dated 1995).
Converted amounts (≈) assume the structure as drawn.

Assays:
[1] = tested on: Pseudomonas aeruginosa IFO 13736; details: IFO13736, 24 h
[2] = tested on: Staphylococcus aureus FDA 209P; details: FDA209P, 24 h
[3] = tested on: Bacillus subtilis ATCC 6633; details: ATCC6633, 24 h
[4] = tested on: Klebsiella pneumonias IFO 13541; format: cell-based; details: IFO13541, 24 h, Gram-negative, Mueller Hinton Medium, 10^6 /ml, 37° C.
[5] = tested on: Pseudomonas aeruginosa IFO 12582; details: IFO12582, 24 h
[6] = tested on: M.R. Staphylococcus aureus 419; details: 24 h
Salmonella typhi TD = format: cell-based; details: Salmonella enterica, 24 h
[7] = tested on: M.R. Staphylococcus aureus 395; details: 24 h
[8] = tested on: M.R. Staphylococcus aureus 421; details: 24 h
[9] = tested on: Staphylococcus aureus Smith; details: 24 h
[10] = tested on: Staphylococcus epidermidis ATCC 12228; details: ATCC12228, 24 h
[11] = tested on: M.R. Staphylococcus aureus 415; details: 24 h
[12] = tested on: Pseudomonas aeruginosa P2; details: P2, 24 h
Shigella flexneri 2b = format: cell-based; details: 24 h
Escherichia coli 0-1 = details: Escherichia coli, 01, 24 h
Escherichia coli H-12 = details: H12, 24 h
Sarcina lutea ATCC 9341 = details: Micrococcus luteus, ATCC9341, 24 h
[13] = tested on: M.R. Staphylococcus aureus 420; details: 24 h
Serratia marcescens NHL = details: 24 h
[14] = tested on: Staphylococcus aureus Terajima; details: 24 h
[15] = tested on: Micrococcus lysodeikticus IFO 3333; details: Micrococcus luteus, IFO3333, 24 h
[16] = tested on: Strepto occus faecalis IFO 12964; details: 24 h
Proteus rettgeri = details: Providencia rettgeri, 24 h
[17] = tested on: Klebsiella pneumonias ATCC 10031; details: ATCC10031, 24 h
Proteus vulgaris OXK = details: 24 h

O=C1CCN(c2c(F)cc3c(=O)c(C(=O)O)cn(C4CC4)c3c2Cl)CCN1 [Compound 2, 8-Chloro-1-cyclopropyl-6-fluoro-7-(2,3,4,5,6,7-hexahydro-1H-1,4-diazepin-5-one-1-yl)-4-oxoquinoline-3-carboxylic acid] gave an MIC [1] of 6.25 µg/mL (≈ 15.9 µM), an MIC [2] of 0.012 µg/mL (≈ 0.0305 µM) and an MIC [3] of 0.024 µg/mL (≈ 0.0609 µM). For the same molecule, the MIC [4] was 0.098 µg/mL (≈ 0.249 µM), the MIC [5] was 6.25 µg/mL (≈ 15.9 µM) and the MIC [6] was 0.024 µg/mL (≈ 0.0609 µM). It also gave an MIC (Salmonella typhi TD) of 0.098 µg/mL (≈ 0.249 µM), an MIC [7] of 0.049 µg/mL (≈ 0.124 µM) and an MIC [8] of 0.024 µg/mL (≈ 0.0609 µM). For the same molecule, the MIC [9] was 0.012 µg/mL (≈ 0.0305 µM), the MIC [10] was 0.049 µg/mL (≈ 0.124 µM) and the MIC [11] was 0.024 µg/mL (≈ 0.0609 µM). It also gave an MIC [12] of 12.5 µg/mL (≈ 31.7 µM), an MIC (Shigella flexneri 2b) of 0.003 µg/mL (≈ 0.00762 µM) and an MIC (Escherichia coli 0-1) of 0.195 µg/mL (≈ 0.495 µM). The MIC (Escherichia coli H-12) was 0.39 µg/mL (≈ 0.99 µM), the MIC (Sarcina lutea ATCC 9341) was 0.195 µg/mL (≈ 0.495 µM) and the MIC [13] was 0.024 µg/mL (≈ 0.0609 µM). The MIC (Serratia marcescens NHL) was 0.78 µg/mL (≈ 1.98 µM), the MIC [14] was 0.098 µg/mL (≈ 0.249 µM) and the MIC [15] was 0.049 µg/mL (≈ 0.124 µM). For the same molecule, the MIC [16] was 0.195 µg/mL (≈ 0.495 µM), the MIC (Proteus rettgeri) was 0.78 µg/mL (≈ 1.98 µM) and the MIC [17] was 0.012 µg/mL (≈ 0.0305 µM). The MIC (Proteus vulgaris OXK) was 0.024 µg/mL (≈ 0.0609 µM).

Molecule N[C@@H]1CCCCN(c2c(F)cc3c(=O)c(C(=O)O)cn(C4CC4)c3c2Cl)C1 [Compound 15] has an MIC [1] of 1.56 µg/mL (≈ 3.96 µM), an MIC [2] of 0.012 µg/mL (≈ 0.0305 µM) and an MIC [3] of 0.024 µg/mL (≈ 0.0609 µM). The MIC [4] was 0.049 µg/mL (≈ 0.124 µM), the MIC [5] was 0.78 µg/mL (≈ 1.98 µM) and the MIC [6] was 0.024 µg/mL (≈ 0.0609 µM). It also gave an MIC (Salmonella typhi TD) of 0.049 µg/mL (≈ 0.124 µM), an MIC [7] of 0.049 µg/mL (≈ 0.124 µM) and an MIC [8] of 0.049 µg/mL (≈ 0.124 µM). The MIC [9] was 0.024 µg/mL (≈ 0.0609 µM), the MIC [10] was 0.049 µg/mL (≈ 0.124 µM) and the MIC [11] was 0.024 µg/mL (≈ 0.0609 µM). The MIC [12] was 1.56 µg/mL (≈ 3.96 µM), the MIC (Shigella flexneri 2b) was 0.006 µg/mL (≈ 0.0152 µM) and the MIC (Escherichia coli 0-1) was 0.098 µg/mL (≈ 0.249 µM). The MIC (Escherichia coli H-12) was 0.098 µg/mL (≈ 0.249 µM), the MIC (Sarcina lutea ATCC 9341) was 0.098 µg/mL (≈ 0.249 µM) and the MIC [13] was 0.049 µg/mL (≈ 0.124 µM). For the same molecule, the MIC (Serratia marcescens NHL) was 0.195 µg/mL (≈ 0.495 µM), the MIC [14] was 0.195 µg/mL (≈ 0.495 µM) and the MIC [15] was 0.195 µg/mL (≈ 0.495 µM). The MIC [16] was 0.195 µg/mL (≈ 0.495 µM), the MIC (Proteus rettgeri) was 0.195 µg/mL (≈ 0.495 µM) and the MIC [17] was 0.012 µg/mL (≈ 0.0305 µM). The MIC (Proteus vulgaris OXK) was 0.049 µg/mL (≈ 0.124 µM).

CC1COc2c(N3CCN(C)CC3)c(F)cc3c(=O)c(C(=O)O)cn1c23 (stereo not drawn) [Ofloxacin, reference compound] showed an MIC [1] of 1.56 µg/mL (≈ 4.32 µM), an MIC [2] of 0.195 µg/mL (≈ 0.54 µM) and an MIC [3] of 0.098 µg/mL (≈ 0.271 µM). It also gave an MIC [4] of 0.024 µg/mL (≈ 0.0664 µM), an MIC [5] of 3.12 µg/mL (≈ 8.63 µM) and an MIC [6] of 0.39 µg/mL (≈ 1.08 µM). It also gave an MIC (Salmonella typhi TD) of 0.024 µg/mL (≈ 0.0664 µM), an MIC [7] of 0.39 µg/mL (≈ 1.08 µM) and an MIC [8] of 0.39 µg/mL (≈ 1.08 µM). For the same molecule, the MIC [9] was 0.39 µg/mL (≈ 1.08 µM), the MIC [10] was 0.78 µg/mL (≈ 2.16 µM) and the MIC [11] was 0.39 µg/mL (≈ 1.08 µM). For the same molecule, the MIC [12] was 0.78 µg/mL (≈ 2.16 µM), the MIC (Shigella flexneri 2b) was 0.012 µg/mL (≈ 0.0332 µM) and the MIC (Escherichia coli 0-1) was 0.098 µg/mL (≈ 0.271 µM). It also gave an MIC (Escherichia coli H-12) of 0.098 µg/mL (≈ 0.271 µM), an MIC (Sarcina lutea ATCC 9341) of 3.12 µg/mL (≈ 8.63 µM) and an MIC [13] of 0.39 µg/mL (≈ 1.08 µM). It also gave an MIC (Serratia marcescens NHL) of 0.049 µg/mL (≈ 0.136 µM), an MIC [14] of 0.78 µg/mL (≈ 2.16 µM) and an MIC [15] of 1.56 µg/mL (≈ 4.32 µM). The MIC [16] was 1.56 µg/mL (≈ 4.32 µM), the MIC (Proteus rettgeri) was 0.098 µg/mL (≈ 0.271 µM) and the MIC [17] was 0.024 µg/mL (≈ 0.0664 µM). It also gave an MIC (Proteus vulgaris OXK) of 0.049 µg/mL (≈ 0.136 µM).
